From patent US8354398B2, “Substituted isoxazole compounds” (Bristol-Myers Squibb Company, priority 2009, dated 2013) come the findings set out here.

For test [1], the target named is T1, S1P3 (Homo sapiens, UniProt Q99500). The test is described as follows: Method B: Receptor [35S] GTPγS SPA Binding Assay, membranes from S1P3 transfected CHO cells. It counts as biochemical. Details: expressed in transfected cells; host or cells: CHO cells. The settings on record: S1P3 transfected CHO cell membranes, NC = a satisfactory dose response curve was not obtained. The protocol:
(§1) Membranes prepared from S1P1 or S1P3 transfected CHO cells (2 μg protein) were incubated in 96-well white plates (CORNING® 3693) with test compounds diluted in DMSO, in 50 μl of reaction mixture containing 7.5 μl WGA-PVT beads (20 mg/ml), and 5 μM GDP, 20 mM HEPES pH 7.4, 100 mM NaCl, 1 mM EDTA, 5 mM MgCl2, 10 μg/ml saponin, 0.1% BSA, and 1 μM leupeptin. The assay was initiated with the addition of 25 μl of 0.2 nM [^35S]-GTPγS (1250 Ci/mmol; NEN) in assay buffer. After 90 min incubation at room temperature, spin the plate at 1000 rpm for 5 min. The bound radionuclides were measured at TOPCOUNT®, expressed as % response relative to S1P (1 μM) activation. Data was analyzed using the four parameter logistic equation in Excel. The four parameters in the equation, Y=A+((B−A)/(1+((EC50/X)^D))), are described as following: A is the Y value (agonist activity) at the bottom plateau; B is the Y value at the top plateau; EC50 is the X value (agonist concentration) when the response is halfway between bottom and top; D is Hill coefficient. Curves were not generated for compounds having Ymax values were below 50%.
(§2) Compounds of the present invention and Comparative Compound A were tested in the Receptor [^35S] GTPγS Binding Assays (Method A) and Receptor [35S] In some instances, the value is an average of multiple experiments where N is the number of experiments conducted that provided satisfactory dose response curves. When more than one batch of an example was tested, the value presented is from a batch which allowed a comparison of GTPγS S1P1 and GTPγS S1P3 in which the most number of experiments were performed. Preferably, the same batch was examined in Method A and Method B. Data was not averaged across different batches of an example compound.
Target sequence in this assay (Q99500 whole entry, species assumed): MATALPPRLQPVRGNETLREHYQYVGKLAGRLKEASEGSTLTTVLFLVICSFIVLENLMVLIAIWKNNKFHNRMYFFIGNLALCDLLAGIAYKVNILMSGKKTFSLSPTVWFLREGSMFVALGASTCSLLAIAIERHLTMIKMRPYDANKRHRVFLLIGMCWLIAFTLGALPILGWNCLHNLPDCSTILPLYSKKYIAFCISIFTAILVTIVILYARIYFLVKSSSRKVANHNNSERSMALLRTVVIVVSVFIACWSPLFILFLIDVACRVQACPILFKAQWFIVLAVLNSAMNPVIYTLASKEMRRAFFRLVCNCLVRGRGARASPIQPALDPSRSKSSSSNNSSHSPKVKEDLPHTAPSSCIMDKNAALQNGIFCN

The target in test [2] is T2, S1P1 (Homo sapiens, UniProt P21453). The test is described as follows: Method B: Receptor [35S] GTPγS SPA Binding Assay, membranes from S1P1 transfected CHO cells. It counts as biochemical. Details: expressed in transfected cells; host or cells: S1P1/CHO cells. The settings on record: for EC50: Method B SPA, S1P1 transfected CHO cell membranes, NC = a satisfactory dose response curve was not obtained; for GTPγS S1P3/S1P1 (Method B): ratio of GTPγS S1P3 EC50 to GTPγS S1P1 EC50, Method B. As for the experimental part:
as §1, §2

Test [3] has as its target T1, S1P3. The test is described as follows: Method A: Receptor [35S] GTPγS Binding Assay, membranes from EDG3-Ga15-bla HEK293T cells. The class given is biochemical. The arrangement: expressed in transfected cells; host or cells: EDG3-Ga15-bla HEK293T cells. The settings on record: EDG3-Ga15-bla HEK293T cell membranes. As for the experimental part:
(§3) Compounds were loaded in a 384 Falcon v-bottom plate (0.5 μl/well in a 3-fold dilution). Membranes prepared from S1P1/CHO cells or EDG3-Ga15-bla HEK293T cells were added to the compound plate (40 μl/well, final protein […]) with MULTIDROP®. [^35S]GTP (1250 Ci/mmol, Perkin Elmer) was diluted in assay buffer: 20 mM HEPES, pH7.5, 10 mM MgCl2, 150 mM NaCl, 1 mM EGTA, 1 mM DTT, 10 μM GDP, 0.1% fatty acid free BSA, and 10 mg/ml Saponin to 0.4 nM. 40 μl of the [^35S] GTP solution was added to the compound plate with a final concentration of 0.2 nM. The reaction was kept at room temperature for 45 min. At the end of incubation, all the mixtures in the compound plate were transferred to a 384 well FB filter plates via GPCR robot system. The filter plate was washed with water 4 times by using the modified manifold Embla plate washer and dried at 60° C. for 45 min. 30 μl of MicroScint 20 scintillation fluid was added to each well for counting at Packard TOPCOUNT®. EC50 is defined as the agonist concentration that corresponds to 50% of the Ymax (maximal response) obtained for each individual compound tested.
as §2
Target sequence in this assay (Q99500 whole entry): as the sequence (Q99500 whole entry, species assumed) above

Test [4] addresses T2, S1P1. The test is described as follows: S1P1 Binding Assay (33P-S1P ligand competition, membranes from CHO cells). The arrangement: expressed in transfected cells; host or cells: CHO cells. Conditions: membranes of CHO cells expressing human S1P1; 0.03 nM 33P-S1P; 60 min room temperature. As for the experimental part: Membranes were prepared from CHO cells expressing human S1P1. Cells were dissociated in buffer containing 20 mM HEPES, pH 7.5, 50 mM NaCl, 2 mM EDTA and Protease Inhibitor cocktail (Roche), and disrupted on ice using the Polytron homogenizer. The homogenate was centrifuged at 20,000 rpm (48,000 g) and the supernatant was discarded. The membrane pellets were resuspended in buffer containing 50 mM HEPES, pH 7.5, 100 mM NaCl, 1 mM MgCl2, 2 mM EDTA and stored in aliquots at −80° C. after protein concentration determination.
Membranes (2 μg/well) and 0.03 nM final concentration of ^33P-S1P ligand (1 mCi/ml, American Radiolabeled Chemicals) were added to the compound plates. Binding was performed for 60 min at room temperature, terminated by collecting the membranes onto GF/B filter plates, and radioactivity was measured by TOPCOUNT®. The competition data of the test compounds over a range of concentrations was plotted as percentage inhibition of radioligand specific binding. The IC50 is defined as the concentration of competing ligand needed to reduce specific binding by 50%.
Compounds of the present invention and Comparative Compound A were tested in the S1P1 binding assay described hereinabove and the results rounded to two digits, shown in Table A were obtained. In some instances, the value is an average of multiple experiments where N is the number of experiments conducted that provided satisfactory dose response curves. When more than one batch of an example was tested, the value presented is from the batch which allowed a comparison of GTPγS S1P1 and GTPγS S1P3 in Method A (Data shown in Table B). Data was not averaged across different batches of an example compound.

Test [5] addresses T2, S1P1. The test is described as follows: Method A: Receptor [35S] GTPγS Binding Assay, membranes from S1P1/CHO cells. The class given is biochemical. Conditions: for EC50: Method A, S1P1/CHO cell membranes; for GTPγS S1P3/S1P1 (Method A): ratio of GTPγS S1P3 EC50 to GTPγS S1P1 EC50, Method A. Details: expressed in transfected cells; host or cells: S1P1/CHO cells. As for the experimental part: as §3, §2

Structures are written as SMILES. Counter-ions that a name gives are not always drawn.

T2 sequence (P21453 whole entry): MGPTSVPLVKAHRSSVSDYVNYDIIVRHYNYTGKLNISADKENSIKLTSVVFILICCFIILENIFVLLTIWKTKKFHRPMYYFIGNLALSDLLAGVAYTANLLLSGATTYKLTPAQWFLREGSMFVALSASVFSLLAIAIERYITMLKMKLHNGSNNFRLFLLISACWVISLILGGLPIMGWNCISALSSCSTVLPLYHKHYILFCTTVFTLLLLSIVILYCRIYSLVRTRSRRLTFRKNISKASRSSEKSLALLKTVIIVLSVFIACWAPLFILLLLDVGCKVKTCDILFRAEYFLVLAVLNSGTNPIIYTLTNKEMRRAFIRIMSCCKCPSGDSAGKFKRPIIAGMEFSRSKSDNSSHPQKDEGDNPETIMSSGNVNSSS

In the case of `O=C(O)C1CN(Cc2ccc(-c3noc(-c4cc(-c5ccccc5)c(C(F)(F)F)s4)n3)cc2)C1` [Comp. A, 1-(4-(5-(4-Phenyl-5-(trifluoromethyl)thiophen-2-yl)-1,2,4-oxadiazol-3-yl)benzyl)azetidine-3-carboxylic acid, reference compound], the 50% effective concentration (EC50) in test [1] came to 20 nM; in test [2] it was 0.25 nM; in test [3], 97 nM; in test [5], 84 nM. Moreover, the “GTPγS S1P3/S1P1 (Method B)” value in test [2] came out at 78. Moreover, in test [4], the concentration for half-maximal inhibition (IC50) amounted to 2.5 nM. Moreover, the “GTPγS S1P3/S1P1 (Method A)” value in test [5] came out at 1.2.

Take `O=C(O)C1CN(Cc2ccc(-c3noc(-c4noc(-c5ccccc5)c4C4CC4)n3)cc2)C1` [Example 6, 1-(4-(5-(4-Cyclopropyl-5-phenylisoxazol-3-yl)-1,2,4-oxadiazol-3-yl)benzyl)-azetidine-3-carboxylic acid, 2,2,2-trifluoroacetic acid salt]: the figures for the EC50 in test [2], in test [3] and in test [5] were 0.22 nM, 420 nM and 5.6 nM, respectively. In addition, the IC50 in test [4] was 0.043 nM. Moreover, the “GTPγS S1P3/S1P1 (Method A)” value in test [5] stood at 75.

For the compound `CC(C)(C)c1c(-c2nc(-c3ccc(CN4CC(C(=O)O)C4)cc3)no2)noc1-c1ccccc1` [Example 7, 1-(4-(5-(4-tert-Butyl-5-phenylisoxazol-3-yl)-1,2,4-oxadiazol-3-yl)benzyl)-azetidine-3-carboxylic acid, 2-2-2-trifluoroacetic acid salt], the concentration for a half-maximal effect (EC50) in test [1] turned out to be 8100 nM; in test [2], 1.5 nM; in test [3], 3700 nM; in test [5], 6.6 nM. Besides, the “GTPγS S1P3/S1P1 (Method B)” value in test [2] is 5,400. In addition, the IC50 in test [4] was 0.58 nM. The “GTPγS S1P3/S1P1 (Method A)” value in test [5] is reported as 560.

As for `CC(F)(F)c1c(-c2nc(-c3ccc(CN4CC(C(=O)O)C4)cc3)no2)noc1-c1ccccc1` [Example 9, 1-(4-(5-(4-(1,1-Difluoroethyl)-5-phenylisoxazol-3-yl)-1,2,4-oxadiazol-3-yl)benzyl)azetidine-3-carboxylic acid, 2,2,2-trifluoroacetic acid salt], the concentration giving a half-maximal response (EC50) was determined as 910 nM in test [1], 0.14 nM in test [2], 2500 nM in test [3] and 3.1 nM in test [5]. Further, the “GTPγS S1P3/S1P1 (Method B)” value in test [2] was 6,500. In test [4], the IC50 amounted to 0.14 nM. In addition, the “GTPγS S1P3/S1P1 (Method A)” value in test [5] was determined as 810.

For the compound `CCC(F)(F)c1c(-c2nc(-c3ccc(CN4CC(C(=O)O)C4)cc3)no2)noc1-c1ccccc1` [Example 10, 1-(4-(5-(4-(1,1-Difluoropropyl)-5-phenylisoxazol-3-yl)-1,2,4-oxadiazol-3-yl)benzyl)azetidine-3-carboxylic acid, trifluoroacetic acid salt], the figures for the concentration for a half-maximal effect (EC50) in test [2], in test [3] and in test [5] were 0.055 nM, 190 nM and 0.84 nM, respectively. This compound also returned an IC50 in test [4] of 0.055 nM. The “GTPγS S1P3/S1P1 (Method A)” value in test [5] was 230.

With `CCCc1c(-c2ccccc2)noc1-c1nc(-c2ccc(CN3CC(C(=O)O)C3)cc2)no1` [Example 11, 1-(4-(5-(3-Phenyl-4-propylisoxazol-5-yl)-1,2,4-oxadiazol-3-yl)benzyl)azetidine-3-carboxylic acid, 2,2,2-trifluoroacetic acid salt], the 50% effective concentration (EC50) in test [1] amounted to 50 nM; in test [2] it was 0.017 nM; in test [5], 0.47 nM. In test [2], the “GTPγS S1P3/S1P1 (Method B)” value was 2,900. In addition, in test [4], the IC50 came to 0.13 nM.

Take `O=C(O)C1CN(Cc2ccc(-c3noc(-c4onc(-c5ccccc5)c4C(F)F)n3)cc2)C1` [Example 12, 1-(4-(5-(4-(Difluoromethyl)-3-phenylisoxazol-5-yl)-1,2,4-oxadiazol-3-yl)benzyl)azetidine-3-carboxylic acid, 2,2,2-trifluoroacetic acid salt]: the 50% effective concentration (EC50) was 1600 nM in test [1], 0.15 nM in test [2] and 3600 nM in test [3]. In addition, the “GTPγS S1P3/S1P1 (Method B)” value in test [2] is 11,000. In test [4], the 50% inhibitory concentration (IC50) turned out to be 0.078 nM.

On to `CNC(=O)c1c(-c2ccccc2)noc1-c1nc(-c2ccc(CN3CC(C(=O)O)C3)cc2)no1` [Example 14, 1-(4-(5-(4-(Methylcarbamoyl)-3-phenylisoxazol-5-yl)-1,2,4-oxadiazol-3-yl)benzyl)azetidine-3-carboxylic acid, 2,2,2-trifluoroacetic acid salt], for which the EC50 in test [2] worked out at 1.2 nM; in test [3], 5200 nM; in test [5], 150 nM. In test [4], the IC50 was 0.7 nM. Also, the “GTPγS S1P3/S1P1 (Method A)” value in test [5] was 35.

For the compound `O=C(O)C1CN(Cc2ccc(-c3noc(-c4noc(-c5ccccc5)c4-c4ccccc4)n3)cc2)C1` [Example 17, 1-(4-(5-(4,5-diphenylisoxazol-3-yl)-1,2,4-oxadiazol-3-yl)benzyl)azetidine-3-carboxylic acid, 2,2,2-trifluoroacetic acid salt], the concentration for a half-maximal effect (EC50) in test [1] was determined as 13.5 nM; in test [2] it was 0.12 nM; in test [3], 20 nM; in test [5] it was 0.73 nM. Also, the “GTPγS S1P3/S1P1 (Method B)” value in test [2] turned out to be 112. The compound further gave an IC50 in test [4] of 0.063 nM. Further, the “GTPγS S1P3/S1P1 (Method A)” value in test [5] stood at 27.

As to `CCCc1c(-c2nc(-c3ccc(CN4CC(C(=O)O)C4)cc3)no2)noc1CC(C)C` [Example 18, 1-(4-(5-(5-Isobutyl-4-propylisoxazol-3-yl)-1,2,4-oxadiazol-3-yl)benzyl)azetidine-3-carboxylic acid, TFA], the EC50 turned out to be 21 nM in test [1], 0.015 nM in test [2] and 1 nM in test [5]. Also, the “GTPγS S1P3/S1P1 (Method B)” value in test [2] is listed as 1,400. Moreover, in test [4], the IC50 stood at 0.14 nM.

`CCCc1onc(-c2nc(-c3ccc(CN4CC(C(=O)O)C4)cc3)no2)c1CC(C)C` [Example 19, 1-(4-(5-(4-Isobutyl-5-propylisoxazol-3-yl)-1,2,4-oxadiazol-3-yl)benzyl)azetidine-3-carboxylic acid, TFA]: the EC50 is 0.72 nM in test [2], 810 nM in test [3] and 3 nM in test [5]. This compound gave an IC50 in test [4] of 0.3 nM. In addition, the “GTPγS S1P3/S1P1 (Method A)” value in test [5] was found to be 270.
